Assay results taken from PMC8097466, “In Vivo Targeting of Escherichia coli with Vancomycin-Arginine” (Antimicrobial Agents and Chemotherapy, 2021).
≈ marks a conversion by molar mass, not a printed value. Like-named read-outs stand apart in the source and are kept apart here.

Tests used:
E. coli UTI89 = experiment: 24-h thigh muscle infection model in neutropenic CD-1 mice; format: in vivo, Escherichia coli; settings: for Log10 (group geometric mean ± SD CFU/g): n = 5 to 8
Experimental: (§1) Using a screening-based strategy, preliminary proof-of-concept studies with V-r employed an abbreviated 9-h thigh muscle infection model in male CD-1 mice rendered neutropenic ([21]). To that end, an E. coli ATCC 25922 isolate was inoculated at 9.7 × 10^4 CFU into both thigh muscles per mouse (n = 5 per experimental group). V-r was administered s.c. every 2 h (110 to 880 mg/kg total dose) starting 1 h postinfection. At 9 h, thigh homogenates were prepared, and CFU were enumerated after culture on CLED (cystine-, lactose-, and electrolyte-deficient) agar. […] In a 24-h thigh muscle infection model, E. coli UTI89 was inoculated at 7.8 × 10^4 CFU into one thigh muscle per mouse (n = 5 to 8 per group) and treated with V-r (total dose, 200 to […]) using an every-6-h dosing regimen from 1 h postinfection. […] Overall, V-r caused an ∼4 to 7.5 log10 reduction in bacterial burden, compared with vehicle control, over the entire dose range.

S. agalactiae = experiment: MIC determination in alignment with CLSI guidelines; format: cell-based; settings: Streptococcus agalactiae
S. pneumoniae = experiment: as above; format: cell-based; settings: Streptococcus pneumoniae
[1] = Plasma protein binding, mouse; format: in vitro ADME
human erythrocytes = experiment: Red blood cell lysis; settings: fetal bovine serum-deficient media
Source text: (§2) Identity was confirmed by ^1H nuclear magnetic resonance and time of flight mass spectrometry, and HCl content was quantified by ion-exchange chromatography.

HepG2 = HepG2 cell cytotoxicity; settings: fetal bovine serum-deficient media
Source text: as §2

[2] = system: human renal proximal tubular epithelial cells; experiment: hRPTEC biomarkers cytotoxicity; settings: primary hRPTEC; cell count, nuclear size, DNA structure, mitochondrial mass, mitochondrial membrane potential, phospholipidosis, glutathione content; fetal bovine serum-deficient media
Source text: as §2

E. coli ATCC 25922 = experiment: 9-h thigh muscle infection model in neutropenic CD-1 mice; format: in vivo, Escherichia coli
Experimental: as §1

A. baumannii [3] = system: A. baumannii
[4] = Plasma protein binding, human
[5] = Thermodynamic solubility in saline
E. coli = experiment: microbe, parasite or virus in culture; settings: Escherichia coli
A. baumannii [6] = experiment: microbe, parasite or virus in culture; settings: Acinetobacter baumannii
[7] = Plasma pharmacokinetics after s.c. administration; parameters: species or system CD-1 mice; settings: mouse, in vivo, sc
Experimental: Plasma pharmacokinetics (PK) of V-r after subcutaneous (s.c.) administration (20 and 121 mg/kg) was determined in naive male CD-1 mice (n = 3/group) using liquid chromatography-tandem mass spectrometry for analysis with a lower limit of quantitation of 5 ng/ml (Table 3).

[8] = total dose over 24 h 1,272 mg/kg

With O=C(O)c1cn(C2CC2)c2cc(N3CCNCC3)c(F)cc2c1=O [Ciprofloxacin] the Reduction from stasis (E. coli UTI89; 24-h model, ciprofloxacin group of Table 5 (20 mg/kg total)) was 1.4 log10, the “Log10 change from vehicle (CFU/g)” value (E. coli UTI89; total dose over 24 h 20 mg/kg) was −6.39 log10 CFU/g and the “Log10 (group geometric mean ± SD CFU/g)” value (E. coli UTI89; total dose over 24 h 20 mg/kg) was 3.32 ± 0.14 log10 CFU/g.

CN[C@H](CC(C)C)C(=O)N[C@H]1C(=O)N[C@@H](CC(N)=O)C(=O)N[C@H]2C(=O)N[C@H]3C(=O)N[C@H](C(=O)N[C@H](C(=O)O)c4cc(O)cc(O)c4-c4cc3ccc4O)[C@H](O)c3ccc(c(Cl)c3)Oc3cc2cc(c3O[C@@H]2O[C@H](CO)[C@@H](O)[C@H](O)[C@H]2O[C@H]2C[C@](C)(N)[C@H](O)[C@H](C)O2)Oc2ccc(cc2Cl)[C@H]1O [Vancomycin] gave an MIC (S. agalactiae; strain B057, clinical isolate (northwest UK)) of 0.5 µg/mL (≈ 0.345 µM), an MIC (S. agalactiae; strain B063, clinical isolate (northwest UK)) of 1 µg/mL (≈ 0.69 µM) and an MIC (S. pneumoniae) of 0.5 µg/mL (≈ 0.345 µM). The MIC (S. pneumoniae; ATCC49619) was 0.5 µg/mL (≈ 0.345 µM), the “PPB (mouse % bound)” value [1] was 50/50 % bound and the “Red blood cell lysis (CC50)” value (human erythrocytes) was >750 µM. The “HepG2 cell cytotoxicity (CC50)” value (HepG2) was >750 µM, the “hRPTEC biomarkers (CC50)” value [2] was >100 µM and the “Impact on E. coli burden” value (E. coli ATCC 25922; dose equivalent to the highest dose of V-r, 9 h) was “failed to significantly impact E. coli burden”. The “Log10 change from vehicle (CFU/g)” value (E. coli ATCC 25922; total dose over 9 h 800 mg/kg) was −0.51 log10 CFU/g, the “Log10 (group geometric mean ± SD CFU/g)” value (E. coli ATCC 25922; total dose over 9 h 800 mg/kg, n = 5) was 6.60 ± 0.66 log10 CFU/g and the “Log10 change from vehicle (CFU/g)” value (E. coli UTI89; [8]) was −1.23 log10 CFU/g. The “Log10 (group geometric mean ± SD CFU/g)” value (E. coli UTI89; [8]) was 8.48 ± 1.31 log10 CFU/g, the MIC (A. baumannii [3]; strain B803, clinical isolate (UK) 2016) was 128 µg/mL (≈ 88.3 µM) and the MIC (A. baumannii [3]; strain GS2AB1, multiresistant clinical isolate (southern Europe) 2017) was 128 µg/mL (≈ 88.3 µM). For the same compound, the MIC (A. baumannii [3]; strain Naval-81, clinical isolate (USA) 2006) was 128 µg/mL (≈ 88.3 µM), the “PPB (human % bound)” value [4] was 50/50 % bound and the “TD solubility in saline” value ([5]; thermodynamic, in saline) was > 50 mg/mL. For the same compound, the MIC (E. coli; ATCC25922, strain ATCC 25922, CLSI susceptible reference strain) was 128 µg/mL (≈ 88.3 µM), the MIC (E. coli; ATCCBAA2340, strain ATCC BAA-2340, blaKPC, Ambler A) was 128 µg/mL (≈ 88.3 µM) and the MIC (E. coli; ATCCBAA2469, strain ATCC BAA-2469, blaNDM-1, Ambler B) was 128 µg/mL (≈ 88.3 µM). The MIC (E. coli; BW25113, strain BW25113, parent strain of BW25113ΔacrB::kan mutant) was 128 µg/mL (≈ 88.3 µM), the MIC (E. coli; NCTC13441, strain NCTC 13441, uropathogenic ST131, blaCTX-M-15, blaOXA-1, blaTEM-1, Ambler A, D) was 128 µg/mL (≈ 88.3 µM) and the MIC (E. coli; NCTC13462, strain NCTC 13462, blaCTX-M-2, Ambler A) was 128 µg/mL (≈ 88.3 µM). The MIC (E. coli; NCTC13846, strain NCTC 13846, clinical isolate, bacteremia, mcr-1) was 64 µg/mL (≈ 44.2 µM), the MIC (E. coli; read-out: MICs, all E. coli and A. baumannii strains tested) was 64 to 256 µg/mL (≈ 44.2 to 177 µM) and the MIC (E. coli; strain AR055, blaNDM-1, blaCMY-6, blaOXA-1, Ambler B, C, D) was 128 µg/mL (≈ 88.3 µM). The MIC (E. coli; strain AR089, blaCMY-2, Ambler C) was 128 µg/mL (≈ 88.3 µM), the MIC (E. coli; strain AR0114, blaTEM-1B, blaKPC-3, Ambler A) was 256 µg/mL (≈ 177 µM) and the MIC (E. coli; strain AR0137, blaNDM-6, blaOXA-9, blaCMY-42, blaCTX-M-15, Ambler B) was 128 µg/mL (≈ 88.3 µM). The MIC (E. coli; strain AR0150, blaNDM-5, blaTEM-1B, blaCMY-42, Ambler A, B, C) was 128 µg/mL (≈ 88.3 µM), the MIC (E. coli; strain AR0346, mcr-1, ESBL, Ambler A) was 256 µg/mL (≈ 177 µM) and the MIC (E. coli; strain AR0349, mcr-1, ESBL, Ambler A) was 128 µg/mL (≈ 88.3 µM). For the same compound, the MIC (E. coli; strain AR0350, mcr-1) was 128 µg/mL (≈ 88.3 µM), the MIC (E. coli; strain AR0493, mcr-1, ESBL, Ambler A) was 256 µg/mL (≈ 177 µM) and the MIC (E. coli; strain AR0494, mcr-1) was 128 µg/mL (≈ 88.3 µM). It also gave an MIC (E. coli; strain B096a, clinical isolate (UK) 2016, AmpC, Ambler C) of 128 µg/mL (≈ 88.3 µM), an MIC (E. coli; strain B808, clinical isolate (UK) 2016, blaTEM-1, blaCTX-M-15, Ambler A) of 256 µg/mL (≈ 177 µM) and an MIC (E. coli; strain ExPEC H5, clinical isolate (UK)) of 128 µg/mL (≈ 88.3 µM). For the same compound, the MIC (E. coli; strain H4/5, clinical isolate, blaTEM-1, blaCTX-M-15, Ambler A) was 256 µg/mL (≈ 177 µM), the MIC (E. coli; strain IR3, clinical isolate, blaNDM-1, Ambler B) was 128 µg/mL (≈ 88.3 µM) and the MIC (E. coli; strain IR45, clinical isolate, blaNDM-1, Ambler B) was 128 µg/mL (≈ 88.3 µM). For the same compound, the MIC (E. coli; strain IR57, clinical isolate, blaNDM-1, Ambler B) was 256 µg/mL (≈ 177 µM), the MIC (E. coli; strain JW0451-2, BW25113ΔacrB::kan, AcrB-deficient efflux pump mutant) was 128 µg/mL (≈ 88.3 µM) and the MIC (E. coli; strain Swiss 2 (AF45), clinical isolate (South Africa) ST101, mcr-1) was 128 µg/mL (≈ 88.3 µM). It also gave an MIC (E. coli; strain Swiss 13, clinical isolate (France) ST69, mcr-1) of 128 µg/mL (≈ 88.3 µM), an MIC (E. coli; strain Swiss 15, clinical isolate (Switzerland) ST446, mcr-1, blaCTX-M, Ambler A) of 128 µg/mL (≈ 88.3 µM) and an MIC (E. coli; strain UTI89, clinical isolate from patient with acute bladder infection) of 128 µg/mL (≈ 88.3 µM). For the same compound, the MIC (A. baumannii [6]) was 128 µg/mL (≈ 88.3 µM).

Compound CN[C@H](CC(C)C)C(=O)N[C@H]1C(=O)N[C@@H](CC(N)=O)C(=O)N[C@H]2C(=O)N[C@H]3C(=O)N[C@H](C(=O)N[C@H](C(=O)N[C@H](CCCNC(=N)N)C(N)=O)c4cc(O)cc(O)c4-c4cc3ccc4O)[C@H](O)c3ccc(c(Cl)c3)Oc3cc2cc(c3O[C@@H]2O[C@H](CO)[C@@H](O)[C@H](O)[C@H]2O[C@H]2C[C@](C)(N)[C@H](O)[C@H](C)O2)Oc2ccc(cc2Cl)[C@H]1O [V-r] has a Clearance ([7]; 20 mg/kg) of 7.8 mL/min/kg, a Vd ([7]; 20 mg/kg) of 0.59 L/kg and a Clearance ([7]; 121 mg/kg) of 5.4 mL/min/kg. The Vd ([7]; 121 mg/kg) was 0.60 L/kg and the solubility thermodynamic ([5]; saline or isotonic, thermodynamic from solid) was 373 mg/mL (≈ 232000 µM).
